According to patent US10645928B2, “Pesticidally active polycyclic derivatives with sulfur containing substituents” (Syngenta Participations AG, priority 2014, dated 2020):

Columns and labels:
Type in all cases: in vivo
[1] = system: Spodoptera littoralis (Egyptian Cotton Leaf Worm); test: Example B19: Spodoptera littoralis, compound in agar absorbed by lettuce roots, anti-feedant effect; conditions: 144 h, test rate of 12.5 ppm, uptake by lettuce roots, Spodoptera eggs, 6 days after infestation, read-out: anti-feeding
Procedure, shortened: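 Compound from DMSO stock mixed into agar; lettuce seedlings took it up via roots over 7 days, then cut leaves were infested with Spodoptera eggs. Anti-feedant effect scored 6 days after infestation relative to untreated samples.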

[2] = system: Diabrotica balteata (Corn Root Worm); test: Example B2: Diabrotica balteata, sprayed maize sprouts, mortality and growth inhibition; conditions: 96 h, application rate of 200 ppm, L2 larvae, 4 days after infestation, read-out: effect in at least one of the two categories (mortality or growth inhibition)
Protocol: (§1) Maize sprouts placed onto an agar layer in 24-well microtiter plates were treated with aqueous test solutions prepared from 10,000 ppm DMSO stock solutions by spraying. After drying, the plates were infested with L2 larvae (6 to 10 per well). The samples were assessed for mortality and growth inhibition in comparison to untreated samples 4 days after infestation.

[3] = system: Spodoptera littoralis (Egyptian Cotton Leaf Worm); test: Example B17: Spodoptera littoralis, sprayed cotton leaf discs, mortality, anti-feeding effect and growth inhibition; conditions: foliar, 72 h, application rate of 200 ppm, L1 larvae, 3 days after infestation, read-out: control (at least one of mortality, anti-feedant effect, growth inhibition)
Procedure, shortened: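 Cotton leaf discs on agar sprayed with aqueous dilutions of 10,000 ppm DMSO stocks, dried, then infested with five L1 larvae. Mortality, anti-feeding and growth inhibition scored against untreated discs 3 days after infestation. Control recorded when any one category exceeds the untreated sample.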

[4] = system: Spodoptera littoralis (Egyptian Cotton Leaf Worm); test: Example B18: Spodoptera littoralis, compound in agar absorbed by lettuce roots, mortality, anti-feedant effect and growth inhibition; conditions: 144 h, test rate of 12.5 ppm, uptake by lettuce roots, Spodoptera eggs, 6 days after infestation, read-out: effect in at least one of the three categories (mortality, anti-feeding, or growth inhibition)
Procedure, shortened: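 Compound from 10,000 ppm DMSO stock mixed into agar; lettuce seeds grew 7 days, taking compound up via roots into the lid plate. Cut leaves infested with Spodoptera eggs; mortality, anti-feedant effect and growth inhibition scored against untreated samples 6 days after infestation.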

[5] = system: Aedes aegypti (Yellow Fever Mosquito); test: Example B23: Aedes aegypti, dry deposits in 12 well tissue culture plates, control; conditions: application rate of 200 ppm in ethanol, adult females, after 48 h and/or 24 h
Protocol: Test solutions, at an application rate of 200 ppm in ethanol, were applied to 12 well tissue culture plates. Once the deposits were dry, five, two to five day old adult female Aedes aegypti were added to each well, and sustained with a 10% sucrose solution in a cotton wool plug. Assessment of knockdown was made one hour after introduction, and mortality was assessed at 24 and 48 hours after introduction.

[6] = system: Bemisia tabaci (Cotton White Fly); test: Example B1: Bemisia tabaci, sprayed cotton leaf discs, mortality; conditions: foliar, 144 h, application rate of 200 ppm, adult white flies, 6 days after incubation
Protocol: Cotton leaf discs were placed on agar in 24-well microtiter plates and sprayed with aqueous test solutions prepared from 10,000 ppm DMSO stock solutions. After drying the leaf discs were infested with adult white flies. The samples were checked for mortality 6 days after incubation.

[7] = system: Diabrotica balteata (Corn Root Worm); test: Example B3: Diabrotica balteata, sprayed maize sprouts, mortality; conditions: 96 h, application rate of 200 ppm, L2 larvae, 4 days after infestation
Protocol: as §1, with “mortality” for “mortality and growth inhibition in comparison to untreated samples”

[8] = system: Tetranychus urticae (Two-Spotted Spider Mite); test: Example B21: Tetranychus urticae, sprayed bean leaf discs, mortality; conditions: foliar, 192 h, application rate of 200 ppm, mixed population (mobile stages), 8 days after infestation
Protocol: Bean leaf discs on agar in 24-well microtiter plates were sprayed with aqueous test solutions prepared from 10,000 ppm DMSO stock solutions. After drying the leaf discs were infested with a mite population of mixed ages. The samples were assessed for mortality on mixed population (mobile stages) 8 days after infestation.

[9] = system: Spodoptera littoralis (Egyptian Cotton Leaf Worm); test: Example B20: Spodoptera littoralis, compound in agar absorbed by lettuce roots, mortality; conditions: 144 h, test rate of 12.5 ppm, uptake by lettuce roots, Spodoptera eggs, 6 days after infestation
Procedure, shortened: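 Compound from a 10,000 ppm DMSO stock mixed into agar; lettuce grown on it for 7 days to take up compound via roots, then leaves cut into lid plate. Spodoptera eggs applied on humid blotting paper; mortality scored 6 days after infestation.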

[10] = system: Plutella xylostella (Diamond Back Moth); test: Example B10: Plutella xylostella, treated artificial diet, growth inhibition; conditions: 120 h, application rate of 200 ppm, L2 larvae, 5 days after infestation
Procedure, shortened: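 Artificial diet treated with aqueous dilutions prepared from 10,000 ppm DMSO stocks, dried, then infested with 10-15 L2 larvae per well. Growth inhibition scored against untreated samples 5 days after infestation.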

[11] = system: Spodoptera littoralis (Egyptian Cotton Leaf Worm); test: Example B14: Spodoptera littoralis, sprayed cotton leaf discs, anti-feeding effect; conditions: foliar, 72 h, application rate of 200 ppm, L1 larvae, 3 days after infestation
Procedure, shortened: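 Cotton leaf discs on agar sprayed with aqueous test solutions made from 10,000 ppm DMSO stocks, dried, then infested with five L1 larvae. Anti-feeding effect scored 3 days after infestation against untreated discs; control counted when anti-feedant effect exceeds untreated.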

[12] = system: Myzus persicae (Green Peach Aphid); test: Example B8: Myzus persicae, sprayed sunflower leaf discs, mortality; conditions: foliar, 144 h, application rate of 200 ppm, leaf disc spray, aphid population of mixed ages, 6 days after infestation
Protocol: Sunflower leaf discs were placed onto agar in a 24-well microtiter plate and sprayed with aqueous test solutions prepared from 10,000 ppm DMSO stock solutions. After drying, the leaf discs were infested with an aphid population of mixed ages. The samples were assessed for mortality 6 days after infestation.

CCS(=O)(=O)c1cc(C(C#N)CCBr)cnc1-c1cn2cnc(C(F)(F)F)cc2n1 (stereo not drawn) [Compound P13, 4-bromo-2-[5-ethylsulfonyl-6-[7-(trifluoromethyl)imidazo[1,2-c]pyrimidin-2-yl]-3-pyridyl]butanenitrile]
≥ 80%: pest or weed control at 12.5 ppm [1] | percent effect (mortality or growth inhibition) at 200 ppm [2] | percent control (mortality, anti-feedant effect or growth inhibition) at 200 ppm [3] | percent effect (mortality, anti-feeding or growth inhibition) at 12.5 ppm [4] | pest or weed control at 200 ppm [5] | mortality at 200 ppm [6] | mortality at 200 ppm [7] | mortality at 200 ppm [8] | mortality at 12.5 ppm [9] | inhibition at 200 ppm [10] | pest or weed control at 200 ppm [11] | mortality at 200 ppm [12]
